{
  "source": "patent US12544375B2",
  "about": "“Small molecule therapeutic for parkinson's disease paired with a biomarker of therapeutic activity” (The Board of Trustees of the Leland Stanford Junior …, priority 2019, dated 2026)",
  "test_system": "LRRK2^G2019S, PINK1 null and SNCA^A53T flies",
  "test": "Dopaminergic neuron number in fly PD models (anti-TH)",
  "format": "in vivo",
  "details": "2.5 μM in food, all three PD models",
  "experimental": "FIG. 4A-FIG. 4I. Miro1 Reducer Rescues PD-Relevant Phenotypes in Flies. For all panels, when Miro1 Reducer was not added, the same volume of the solvent, DMSO, was supplied in fly food. Drug administration (2.5 μM) was started from day 2. (FIG. 4A-FIG. 4C) Survival curves of LRRK2^G2019S (FIG. 4A), PINK1^B9 (imprecise excision, null) and PINK1^RV (the precise excision control for PINK1^B9) (FIG. 4B), and SNCA^A53T flies (FIG. 4C). n=58-150. (FIG. 4D) Dopaminergic (DA) neurons in the PPM1/2 clusters of 22-day old flies were immunostained with anti-TH. (FIG. 4D-FIG. 4F) Quantification of the DA neuron number in the PPL1 or PPM1/2 cluster (total number divided by 2 for each brain). (FIG. 4D) LRRK2^G2019S. n=6-8 brains. (FIG. 4E) PINK1^B9 (“−”) and PINK1^RV (“+”). n=9-16. (FIG. 4F) SNCA^A53T. n=9-11. […]\nImmunocytochemistry and Confocal Microscopy. PI (P4170, Sigma) at 2.5 μg/ml or 4′, 6-Diamidino-2-phenylindole (Dapi-D9542, Sigma) at 0.5 μg/ml was applied in culture media at room temperature in the dark for 10 min, MitoSox (M36008, Invitrogen) at 2 μM was applied in culture media at 37° C. for 10 min, or TMRM (T668, Molecular Probes) at 25 nM was applied in culture media at 37° C. for 30 min, and cells were washed with HBSS and imaged immediately in a 35-mm petridish containing the Hibernate E low-fluorescence medium with a 63×/N.A.0.9 water-immersion objective. […]",
  "data": [
    {"smiles": "O=C(Nc1ccc(Nc2cc(-n3ccnc3)ncn2)cc1)Nc1cccc(F)c1", "note": "[Miro1 Reducer]", "values": [
      {"measurement": "age-dependent dopaminergic neuronal loss", "value": "significantly rescued"}
    ]}
  ]
}
